# Results from patent US20140193824A1, “High-Resolution Clonal Typing of Escherichia coli” (priority 2013, published 2014).
# Where two headings read alike, the source gives them in different places.
# What was measured:
# [1] = test system: clinical E. coli isolates; test: Antimicrobial susceptibility by disk diffusion testing (CLSI criteria) of clinical E. coli isolates; type: cell-based, Escherichia coli; conditions: for Observed Resistance rate: rate of resistant isolates among 1,413 nonsingleton isolates of the primary collection
# Description: (Veterans Affairs Medical Center).
# Antimicrobial susceptibility profiles were determined using disk diffusion testing.
# The prevalence of susceptibility to individual agents was calculated for the total primary collection, for individual participating laboratories, and for individual CH clonotypes. Odds ratios (ORs) were calculated for each subgroup (i.e., laboratory or clonotype) relative to the rest of the population. If the OR was >2 or <0.5, its statistical significance was evaluated using Fisher's exact test.
# [2] = test system: clinical E. coli isolates; test: Clonotype-guided (CH, fumC-fimH) prediction of antimicrobial resistance, primary collection, >=80% clonotype susceptibility cutoff; set-up: species or system Escherichia coli; conditions: for Resistance among allowed isolates (actual prevalence of resistance): allowed population; for Resistance among rejected isolates: rejected population
# Description: (§1) Antimicrobial susceptibility profiles were determined using disk diffusion testing. The interpretive criteria were those specified by the Clinical and Laboratory Standards Institute (CLSI).
# Internal (<500 bp) regions of fumC and fimH were amplified by PCR, and the DNA sequences were determined by Sanger sequencing. Each unique combination of fumC and fimH alleles defined a CH clonotype. The diversity of the clonotype distribution was evaluated using the Simpson's modified alpha-diversity index.
# (§2) Each isolate in the primary collection was classified as resistant or susceptible to each of the 11 antimicrobials based on the prevalence of susceptibility to the particular antimicrobial in the rest of isolates belonging to the same clonotype (i.e., for each isolate classification, the susceptibility of the corresponding clonotype was recalculated by excluding the profile of the isolate to be classified). Thus, clonotype-guided antibiotic selection was evaluated only for isolates from clonotypes comprising greater than or equal to 2 isolates.
# [3] = test system: clinical E. coli isolates
# Source text: The primary set of 1,518 recent clinical E. coli isolates consisted of consecutive single-patient human extraintestinal isolates recovered between October 2010 and June 2011 at five clinical microbiology laboratories serving distinct patient populations in Seattle, Wash. (Group Health Cooperative, Harborview Medical Center, Seattle Children's Hospital, and the University of Washington Medical Center), and Minneapolis, Minn. (Veterans Affairs Medical Center). […] Another set of E. coli isolates was obtained from the University Hospital in Munster, Germany, and consisted of 161 consecutive isolates from urine samples recovered from July to September 2012.
# as §1, §2
# To avoid potential self-selection bias in the analysis of these smaller groups, the susceptibility classification for the isolates in each subset was done after excluding the susceptibility profiles of that particular subset, i.e., by using the clonotype susceptibility profiles of the remaining isolates from common clonotypes (Table 4).
# [4] = Harborview Med. Center, Seattle
Compound,Observed Resistance rate [1],Resistance among allowed isolates (actual prevalence of resistance) [2],Resistance among rejected isolates [2],further results
"CN(C)[C@@H]1C(O)=C(C(N)=O)C(=O)[C@@]2(O)C(O)=C3C(=O)c4c(O)cccc4[C@@](C)(O)[C@H]3C[C@@H]12 [TET, tetracycline]",29.5%,11.5%,48.0%,–
"Cc1nnc(SCC2=C(C(=O)O)N3C(=O)[C@@H](NC(=O)Cn4cnnn4)[C@H]3SC2)s1 [CZ, cefazolin]",19.7%,10.7%,32.0%,–
amoxicillin-clavulanate [A/K],25.5%,–,–,–
gentamicin [GM],8.92%,4.3%,31.4%,–
"O=C1CN(/N=C/c2ccc([N+](=O)[O-])o2)C(=O)N1 [NIT, nitrofurantoin]",6.79%,5.5%,27.4%,–
ampicillin-sulbactam [A/S],29.4%,13.0%,37.9%,–
trimethoprim-sulfamethoxazole [T/S],26.9%,–,–,"Total Resistant ([1]; Children's Hospital, Seattle): 34.2%; Total Resistant ([1]; Group Health Co-op, Seattle): 20.1%; Total Resistant [1, 4]: 30.4%; Total Resistant ([1]; Univ. of Münster, Münster, 161 urine isolates): 32.6%; Total Resistant ([1]; Univ. of Washington, Seattle): 33.3%; Total Resistant ([1]; VA Med. Center, Minneapolis): 34.0%; Resistance among allowed isolates ([3]; Children's Hospital, Seattle): 14.2%; Resistance among allowed isolates ([3]; Group Health Co-op, Seattle): 5.0%; Resistance among rejected isolates ([3]; Group Health Co-op, Seattle): 36.2%; Resistance among allowed isolates [3, 4]: 7.4%; Resistance among allowed isolates ([3]; Univ. of Münster, Münster): 14.3%; Resistance among allowed isolates ([3]; Univ. of Washington, Seattle): 11.4%; Resistance among rejected isolates ([3]; Univ. of Washington, Seattle): 62.6%; Resistance among allowed isolates ([3]; VA Med. Center, Minneapolis): 17.0%; Actual prevalence of resistance among allowed isolates, mean ([3]; mean over the laboratories): 12.1%"
"CO/N=C(\C(=O)N[C@@H]1C(=O)N2C(C(=O)O)=C(CSc3nc(=O)c(=O)[nH]n3C)CS[C@H]12)c1csc(N)n1 [CTR, ceftriaxone]",5.38%,4.2%,31.1%,–
"CC1(C)S[C@@H]2[C@H](NC(=O)[C@H](N)c3ccccc3)C(=O)N2[C@H]1C(=O)O [AMP, ampicillin]",51.6%,21.9%,60.1%,–
piperacillin-tazobactam [PTZ],3.96%,3.8%,13.3%,–
